These results are taken from patent US12281299B2, “Control of nitrogen fixation in rhizobia that associate with cereals” (Massachusetts Institute of Technology, priority 2019, dated 2025).

Test [1] deals with P. protegens Pf-5. Description: Genetic part characterization for P. protegens (promoters, RBSs, terminators, inducible systems; fluorescence reporter, flow cytometry). The format is cell-based, Pseudomonas protegens. The source says:
Construction and characterization genetic parts for P. protegens. Genetic part libraries were built on a pRO1600-ori plasmid pMR-2 using Gibson assembly (New England Biolabs, Cat # E2611). The fluorescence proteins, GFPmut3b and mRFP1 were used as reporters. The Anderson promoter library on the BioBricks Registry were utilized for the characterization of constitutive promoters (FIGS. 11A-11C). The following combinations of cognate regulators and inducible promoters were characterized. IPTG inducible LacI-Ptac, DAPG inducible PhlF-PPhl, aTc inducible TetR-PTet, 3OC6HSL inducible LuxR-PLux, arabinose inducible AraC-PBAD, cuminic acid inducible CymR-PCym, and naringenin inducible FdeR-PFde were optimized (FIGS. 15A-15C). […] RBS library for GFP was designed using the RBS library calculator at the highest-resolution mode, and the 3′ end of the 16S rRNA sequences were adjusted according to the species (3′-ACCTCCTTA-5′ for P. protegens Pf-5). Terminators for T7 RNAP were characterized by placing a terminator between two fluorescence reporters expressed from a single T7 wild-type promoter located upstream of the first fluorescence protein GFP. The expression of the two fluorescence proteins is enabled by an IPTG-inducible T7 RNAP expression system of the controller strain MR7 (FIGS. 13A-13B). All genetic parts for P. protegens Pf-5 were characterized as follows.

A further test has as its system R. sp. IRBG74. The test is described as follows: Nitrogenase assays (Rhizobia strains), acetylene reduction. The format is cell-based, Rhizobium sp. To be noted: DAPG-inducible T7 RNAP driving v3.2 refactored pathway in R. sp. IRBG74. How it is done:
Nitrogenase assays (Rhizobia strains). […] 5 μl of overnight cultures was diluted into 500 μl of UMS medium with 30 mM succinate, 10 mM sucrose, and 10 mM NH4Cl and appropriate antibiotics in 96-deepwell and incubated for 24 h at 30° C., 900 rpm in a Multitron incubator. Cultures were diluted to an OD600 of 0.4 into 2 mL of UMS medium plus 30 mM succinate and 10 mM sucrose supplemented with appropriate antibiotics, 1.43 mM serine and an inducer (if necessary) in 10 mL glass vials with PTFE-silicone septa screw caps. Headspace in the vials was replaced with 99% argon and 1% oxygen gas using a vacuum manifold. Acetylene was injected to 10% (vol/vol) into each culture vial to begin the reaction. […]
Ethylene quantification. Ethylene production was analyzed by gas chromatography using an Agilent 7890A GC system (Agilent Technologies, Inc., CA USA) equipped with a PAL headspace autosampler and flame ionization detector as follows. […] Acetylene and ethylene were detected at 3.0 min and 3.7 min after injection, respectively. Ethylene production was quantified by integrating the 3.7 min peak using Agilent GC/MSD ChemStation Software.
The bacteria were grown in appropriate media, including antibiotics, and then evaluated for nitrogenase activity using an acetylene reduction assay (see Methods and Materials Section). […]

The next test has as its system nifH promoter. The test is described as follows: nifH expression analysis (PnifH-sfgfp, flow cytometry), A. caulinodans. Particulars: nifA and rpoN under IPTG control, condition used for nitrogen fixation. Format: cell-based, Azorhizobium caulinodans.
The subject of test [2] is P. protegens Pf-5. The test is described as follows: Characterization of genomically integrated controllers (T7 promoter GFP reporter), P. protegens Pf-5. The format is cell-based, Pseudomonas protegens. Particulars: P. protegens Pf-5 controller strain MR7, reporter plasmid pMR-80. The source says:
Genomic integration and characterization of controllers. The mini-Tn7 insertion system was used to introduce a controller into the genome of P. protegens Pf-5. The IPTG-inducible T7 RNAP expression system and a tetracycline resistant marker tetA was placed between two Tn7 ends (Tn7L and Tn7R). The controller plasmid pMR-85 was introduced into P. protegens Pf-5 by double transformation with pTNS3 encoding the TnsABCD transposase. A genomically-integrated controller located 25 bp downstream of the stop codon of glmS was confirmed by PCR and sequencing. A markerless insertion method using homologous recombination was employed in R. sp. IRBG74. A controller encoding inducible T7 RNAP system flanked by two homology fragments that enables the replacement of recA was cloned into a suicide plasmid. These controller plasmids (IPTG-inducible, pMR82-84; DAPG-inducible, pMR85) in E. coli was mobilized into R. sp. IRBG74 MR18 (AhsdR. Anif) by triparental mating, generating the controller strains (MR19, 20, 21 and 22, respectively). The controller integration in the genome was confirmed by gentamicin sensitivity and diagnostic PCR. All controllers were characterized in a manner identical to that described in genetic part characterization.

The test system of test [3] is E. coli Marionette MG1655. To be noted: 1 mM choline-Cl.
Protocol: The reporter plasmid pMR-120 in which gfpmut3b is fused to the PT7(P2) promoter (FIGS. 28A-28C) was co-transformed to analyze the response functions of each of the 12 T7 RNAP controller plasmids. To characterize controllers, single colonies were inoculated into 1 ml LB supplemented with antibiotics in 96-deepwell plates (USA Scientific, Cat #18962110) and grown overnight at 30° C., 900 rpm in a Multitron incubator (INFORS HT, MD). 0.5 μl of overnight cultures was diluted into 200 μl of LB with antibiotics and appropriate inducers in 96-well plates (Thermo Scientific, Cat #12565215) and incubated for 6 h at 30° C., 1,000 rpm in an ELMI DTS-4 shaker (ELMI, CA). After growth, 4 μl of culture sample was diluted into 150 μl PBS with 2 mg/mL kanamycin for flow cytometry analysis.
Flow cytometry. Cultures with fluorescence proteins were analyzed by flow cytometry using a BD Biosciences LSRII Forterssa analyzer with a 488 nm laser and 510/20-nm band pass filter for GFP and a 561 nm laser and 610/20 nm band pass filter for mCherry and mRFP1. […] The median fluorescence from cytometry histograms was calculated for all samples. The median autofluorescence was subtracted from the median fluorescence and reported as the fluorescence value in arbitrary unit (au).

Protocol for nifH promoter: Flow cytometry. Cultures with fluorescence proteins were analyzed by flow cytometry using a BD Biosciences LSRII Forterssa analyzer with a 488 nm laser and 510/20-nm band pass filter for GFP and a 561 nm laser and 610/20 nm band pass filter for mCherry and mRFP1. Cells were diluted into 96-well plates containing phosphate buffered saline solution (PBS) supplemented with 2 mg/mL kanamycin after incubation. Cells were collected over 20,000 events which were gated using forward and side scatter to remove background events using FlowJo (TreeStar Inc., Ashland, Oreg.). The median fluorescence from cytometry histograms was calculated for all samples. The median autofluorescence was subtracted from the median fluorescence and reported as the fluorescence value in arbitrary unit (au).
nifH expression analysis. Complementation of NifA was tested using plasmid pMR-128 to 130 that contains the sfgfp fused to the nifH promoter in the A. caulinodans ΔnifA mutant. The inducible NifA/RpoN expression was provided by the plasmid pMR-121 into which sfgfp driven by the nifH promoter was added to analyze MN promoter activity, yielding pMR-131 (FIG. 29). […] Each of the plasmids was mobilized into the A. caulinodans ΔnifA mutant, which was grown following the same protocol as used for nitrogenase activity (described herein). […]

With `CC(=O)c1c(O)cc(O)c(C(C)=O)c1O` [DAPG, 2,4-Diacetylphloroglucinol, reference compound], the “function of inducible system” value in the test on P. protegens Pf-5 [1] (P. protegens Pf-5, pRO1600 plasmid) is on record as “functional”. For the same molecule, the “induction of nitrogenase activity” value with R. sp. IRBG74 is 9 fold.
On to `CC(C)S[C@@H]1O[C@H](CO)[C@H](O)[C@H](O)[C@H]1O` [IPTG, Isopropyl-beta-D-thiogalactoside], for which the “dynamic range of response function from the nifH promoter” value in the test with nifH promoter came out at 45 fold. Besides, the “expression range of IPTG-inducible system” value with P. protegens Pf-5 [1] (Ptac promoter and Lad (Q18M/A47V/F161Y) protein, 1 mM IPTG, P. protegens Pf-5) was 110 fold. In the test on P. protegens Pf-5 [2], the “activation of GFP expression by the T7 promoter” value turned out to be 96 fold.
For the molecule `C[N+](C)(C)CCO.[Cl-]` [choline-Cl, Choline chloride], the “inducibility of the T7 promoter by controller plasmid” value in test [3] is reported as “not inducible”.
